Measurements reported in article PMC7569734 (Bioorganic & medicinal chemistry letters, 2019).
“Also recorded” adds a separate entry of the source. Read-outs that look alike come from different tables or passages of the source. Marks after values point to notes of the source that are not given here.

Experiments:
[1] = test system: Type 2 GD patient-derived cells (L444P/L444P genotype); assay: GPN-induced lysosomal calcium release assay in Type 2 GD patient-derived cells; assay type: cell-based, human; conditions: for Emax: Homo sapiens, read-out: Lysosomal Ca+2 Assay Emax, GD patient-derived cells, percent activation of basal GPN-induced calcium response measured in the absence of compound
Estrogen Receptor = assay: Estrogen receptor assay; assay type: cell-based

Compound	activity in lysosomal calcium release assay (in words) ([1]; GD patient-derived cells)	estrogen receptor functional activity (in words) (Estrogen Receptor; 10 μM)	further results
CC/C(=C(\c1ccccc1)c1ccc(OCCN(C)C)cc1)c1ccccc1 [Compound 1, tamoxifen, reference compound]	partially restores lysosomal calcium in GD patient-derived cells		Estrogen Receptor % Activity @ 10 μM (inhibition) (Estrogen Receptor): 100%^††; estrogen receptor functional activity (in words) (Estrogen Receptor): antagonist activity
CCC(Cc1ccc(OCCN(C)C)cc1)c1ccccc1 (centres unmarked) [Compound 5]	somewhat more potent than and equally efficacious as tamoxifen		
CCC(C(=O)c1ccc(OCCN(C)C)cc1)c1ccccc1 (centres unmarked) [Compound 17]	little effect on lysosomal calcium release		
CCCC(C(=O)c1ccc(OCCN(C)C)cc1)c1ccccc1 (centres unmarked) [Compound 18]	little effect on lysosomal calcium release		
CC(C)C(C(=O)c1ccc(OCCN(C)C)cc1)c1ccccc1 (centres unmarked) [Compound 19]			Emax [1]: 54 to 60%
CCCC(CCC)(C(=O)c1ccc(OCCN(C)C)cc1)c1ccccc1 [Compound 20]			Emax [1]: 54 to 60%
CCCCC(C(=O)c1ccc(OCCN(C)C)cc1)c1ccccc1 (centres unmarked) [Compound 21]	little effect on lysosomal calcium release; also recorded: no activity		
CC(C)CC(C(=O)c1ccc(OCCN(C)C)cc1)c1ccccc1 (centres unmarked) [Compound 22]			potency relative to tamoxifen in calcium release assay ([1]; GD patient-derived cells, fold more potent than tamoxifen): 10 fold
CC(C)CCC(C(=O)c1ccc(OCCN(C)C)cc1)c1ccccc1 (centres unmarked) [Compound 23]		partial agonist activity	efficacy relative to tamoxifen in calcium release assay ([1]; GD patient-derived cells, percent more efficacious than tamoxifen): roughly 30%
CCCCCCC(C(=O)c1ccc(OCCN(C)C)cc1)c1ccccc1 (centres unmarked) [Compound 24]	little effect on lysosomal calcium release	partial agonist activity	
CCCCC(C(=O)c1ccc(OCCN(C)C)cc1)c1ccccc1CC (centres unmarked) [Compound 26]		antagonist rather than an agonist	
CCCCC(C(=O)c1ccc(OCCN(C)C)cc1)c1ccccc1C(C)C (centres unmarked) [Compound 28]			EC50 ([1]; read-out: Lysosomal Ca+2 Assay EC50, GD patient-derived cells, GPN-induced calcium release): 1480 nM
CC(C)CC(C(=O)c1ccc(OCCN(C)C)cc1)c1ccccc1C1CC1 (centres unmarked) [Compound 31]		devoid of estrogenic activity; also recorded: lack of any estrogenic activity	
